Experimental findings from US20110124661A1, “OXAZOLOBENZIMIDAZOLE DERIVATIVES” (MERCK SHARP & DOHME CORP., priority 2008, published 2011) are described below.

The target of the assay is T1, recombinant human mGluR2 (Homo sapiens, UniProt Q14416).
T1 construct: expressed in transfected cells
T1 sequence (Q14416 19-872): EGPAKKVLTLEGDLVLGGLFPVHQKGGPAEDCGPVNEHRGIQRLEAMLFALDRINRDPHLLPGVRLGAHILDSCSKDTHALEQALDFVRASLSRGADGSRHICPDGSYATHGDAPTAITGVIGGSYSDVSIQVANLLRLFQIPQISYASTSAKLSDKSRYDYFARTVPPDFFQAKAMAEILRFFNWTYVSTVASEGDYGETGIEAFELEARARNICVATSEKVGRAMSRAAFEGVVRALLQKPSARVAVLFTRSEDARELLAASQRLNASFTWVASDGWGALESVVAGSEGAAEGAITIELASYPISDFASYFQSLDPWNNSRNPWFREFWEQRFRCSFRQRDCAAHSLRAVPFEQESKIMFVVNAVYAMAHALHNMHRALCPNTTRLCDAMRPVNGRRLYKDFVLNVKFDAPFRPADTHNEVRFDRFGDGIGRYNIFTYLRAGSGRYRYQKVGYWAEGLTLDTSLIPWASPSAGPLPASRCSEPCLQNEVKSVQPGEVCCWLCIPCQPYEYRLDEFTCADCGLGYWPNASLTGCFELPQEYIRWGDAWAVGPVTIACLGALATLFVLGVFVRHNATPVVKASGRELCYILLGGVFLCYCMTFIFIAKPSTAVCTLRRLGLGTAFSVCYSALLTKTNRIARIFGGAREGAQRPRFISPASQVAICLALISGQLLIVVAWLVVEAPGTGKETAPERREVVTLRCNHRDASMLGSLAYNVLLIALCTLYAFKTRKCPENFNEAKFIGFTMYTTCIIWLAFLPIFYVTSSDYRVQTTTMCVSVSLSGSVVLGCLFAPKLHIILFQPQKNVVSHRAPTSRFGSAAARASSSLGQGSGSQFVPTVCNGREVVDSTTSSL
Nature of the assay: FLIPR Ca2+ mobilization assay, potentiation of glutamate response. The format is cell-based. The following applies: potentiation after EC20 glutamate (900 nM); CHO dhfr- cells expressing human mGluR2 and Gα16; read-out: Representative FLIPR EC50 Values. Here is the method:
Inhibition constants are determined as follows. The compounds of the present invention may be tested in a […] (FLIPR) based assay. This assay is a common functional assay to monitor Ca^2+ mobilization in whole cells expressing recombinant receptor coupled with a promiscuous G-protein. CHO dhfr-cells stably expressing recombinant human mGluR2 and Gα16 loaded with Fluo-4 AM (Invitrogen, Carlsbad Calif.) are treated with dose responses of compounds and the Ca^2+ response is monitored on a FLIPR384 (Molecular Devices, Sunnydale Calif.) for agonist activity. The potentiation response is monitored after a subsequent addition of an EC20 concentration of glutamate (900 nM). The maximum calcium response at each concentration of compound for agonist or potentiation are plotted as dose responses and the curves are fitted with a four parameters logistic equation giving EC50 and Hill coefficient using the iterative non linear curve fitting software program.
Turning to `FC(F)(F)c1ccc(OC[C@@H]2Cn3c(nc4ccccc43)O2)cn1` [Example 1-21, (2S)-2-({[6-(trifluoromethyl)yridine-3-yl]oxy}methyl)-2,3-dihydro[1,3]oxazolo[3,2-a]benzimidazole], the EC50 was determined as 0.507 µM. Turning to `CC(C)(C)c1ccc(OCC2Cn3c(nc4cccnc43)O2)cc1` (racemic) [Example 2-16, (RS)-2-[(4-tert-butylphenoxy)methyl]-2,3-dihydro[1,3]oxazolo[2′,3′:2,3]imidazo[4,5-b]pyridine], the EC50 was determined as 0.261 µM.

Take `CC(C)(C)c1cc(OC[C@@H]2Cn3c(nc4cc(C#N)ccc43)O2)ccn1` [Example 1-12, (2S)-2-{[(2-tert-butylpyridin-4-yl)oxy]methyl}-2,3-dihydro[1,3]oxazolo[3,2-a]benzimidazole-7-carbonitrile]: the EC50 is 0.206 µM.

As for “(2S)-2-{[4-(2,2,2-trifluoro-1,1-dimethylethyl)phenoxy]methyl}-2,3-dihydro[1,3]oxazolo[3′,2′:1,2]imidazo[4,5-c]pyridine [Example 2-8]”, the EC50 turned out to be 0.021 µM.

Turning to `CC(C)(C)c1ccc(OC[C@@H]2Cn3c(nc4cc(F)c(F)cc43)O2)cn1` [Example 1-17, (2S)-2-{[(6-tert-bulylpyridin-3-yl)oxy]methyl}-6,7-difluoro-2,3-dihydro[1,3]oxazolo[3,2-a]benzimidazole], the half-maximal effective concentration (EC50) was found to be 0.058 µM. In the case of `CC(C)(C)c1ccc(OC[C@@H]2Cn3c(nc4cc(C#N)ccc43)O2)cn1` [Example 1-6, (2S)-2-{[(6-tert-butylpyridin-3-yl)oxy]methyl}-2,3-dihydro[1,3]oxazolo[3,2-a]benzimidazole-7-carbonitrile], the EC50 is 0.028 µM.

Usually EC50 stands for the concentration that produces a half-maximal response.
